One experiment concerns L. monocytogenes EGD. Type of experiment: cell-based, Listeria monocytogenes. As to conditions: 24 h. The protocol:
(§1) Antibacterial activity of recombinant bacteriocins against a number of Gram-positive and Gram-negative bacteria (Table S2) was determined by the method of two-fold serial dilutions in a liquid medium. Two-fold serial dilutions of bacteriocins were prepared in sterile 96-well flat-bottom polystyrene microplates (Eppendorf, Hamburg, Germany) (Cat. No. 0030730.011) in a volume of 50 µL of sterile 0.1% bovine serum albumin (BSA) (SERVA Electrophoresis GmbH, Heidelberg, Germany) to prevent non-specific sorption of peptides to the surface of the plate wells [23]. Mid-log phase bacterial cultures were diluted with the 2x Mueller-Hinton broth (MHB) (Sigma-Aldrich, St. Louis, MO, USA) to a final cell concentration of 10^6 colony forming units (CFU) per mL. To determine the activity of bacteriocins against Listeria and Enterococci, 3% tryptic soy broth (TSB) (Merck-Millipore, Burlington, MA, USA) was used instead of MHB. Aliquots of 50 μL of diluted bacterial suspensions were added to each well of the plate, which was then incubated at 37 °C and 950 rpm for 24 h using thermostatable plate shaker PST-60HL-4 (Biosan, Riga, Latvia). As a negative control, 50 µL of the sterile growth medium (2xMHB or 6% TSB) was added to the wells containing 50 µL of 0.1% BSA. The values of the minimum inhibitory concentrations (MIC) were determined as the minimum concentration of the peptide, at which there was no visible growth of bacterial culture. Incubation for 2 h with 20 µg/mL chromogenic substrate resazurin (Sigma-Aldrich, St. Louis, MO, USA) was used to detect viable bacterial cells if they were difficult to visually detect. To study the effect of inorganic salts on the antimicrobial activity of bacteriocins, antibacterial activity assay was carried out in MHB medium supplemented with 0.9% NaCl.

Another experiment relates to S. aureus 209P. Type of experiment: cell-based. The following applies: 24 h. The protocol:
as §1

Another experiment has as its system E. coli ATCC 25922. Type of experiment: cell-based. The following applies: ATCC 25922, 24 h. The protocol:
as §1

A further experiment relates to M. luteus Ac-2229. Type of experiment: cell-based. As to conditions: Ac-2229, 24 h. On the procedure:
as §1

Another experiment has as its system E. coli XDR CI 1057. Type of experiment: cell-based. The following applies: XDR CI 1057, 24 h. The protocol:
as §1

In the next experiment the test system is L. lactis MK66. Type of experiment: cell-based. As to conditions: MK66, 24 h. On the procedure:
as §1

Another experiment relates to B. licheniformis B-511. Type of experiment: cell-based. The following applies: 24 h. On the procedure:
as §1

In the next experiment the test system is E. coli SQ110. Type of experiment: cell-based. The following applies: SQ110, 24 h. The protocol: as §1
Another experiment concerns E. coli ML-35p. Type of experiment: cell-based. The following applies: 24 h. The protocol:
as §1

A further experiment relates to M. phlei Ac-1221. Type of experiment: cell-based. As to conditions: 24 h. The protocol: as §1
In a further experiment the test system is A. baumannii XDR CI 2675. Type of experiment: cell-based. The following applies: XDR CI 2675, 24 h. On the procedure: as §1
The test system of another experiment is B. subtilis B-886. Type of experiment: cell-based. The following applies: B-886, 24 h. On the procedure: as §1
For experiment [1], the system named is P. aeruginosa MDR CI 1995. Type of experiment: cell-based. The following applies: MDR CI 1995, 24 h. The protocol: as §1
A further experiment concerns tested bacterial strains. In words: Antibacterial activity assay (MIC), average change over the tested strains. Type of experiment: cell-based. On the procedure: as §1, with “As a negative control, 50 µL of the sterile growth medium (2xMHB or 6% TSB) was added to the wells containing 50 µL of 0.1% BSA.” left out, “Incubation for 2 h with 20 µg/mL chromogenic substrate resazurin (Sigma-Aldrich, St. Louis, MO, USA) was used to detect viable bacterial cells if they were difficult to visually detect. To study the effect of inorganic salts on the antimicrobial activity of bacteriocins, antibacterial activity assay was carried out in MHB medium supplemented with 0.9% NaCl.” left out

A further experiment concerns L. lactis MK43. In words: Antibacterial activity assay (MIC), two-fold serial dilutions in liquid medium. Type of experiment: cell-based. The following applies: for Minimum inhibitory concentration in the presence of NaCl: MHB supplemented with 0.9% NaCl; for Minimum Inhibitory Concentration: MHB, 0.1% BSA, 37 °C, 24 h, no visible growth. The protocol:
as §1

Positions of bridges follow the written chain, without caps; N, C: chain ends. No end group written: not given here.

For “KTYYGNGVHSTKKSLWGKVRLKNVIPGTLCRKQSLPIKQDLKILLGWATGAFGKTFH [AcdA(dT,C11S)]”, the “Minimum Inhibitory Concentration” value in the experiment on L. monocytogenes EGD is listed as more than 32 µM; with S. aureus 209P, 32 µM; in the experiment on E. coli ATCC 25922, 8 µM; in the experiment on M. luteus Ac-2229, 16 µM; with E. coli XDR CI 1057, 16 µM; in the experiment with L. lactis MK66, 1 µM. Besides, the “Minimum Inhibitory Concentration” value with B. licheniformis B-511 is listed as 4 µM; with E. coli SQ110 it was 4 µM; in the experiment on E. coli ML-35p it was 4 µM; in the experiment with M. phlei Ac-1221, 4 µM; with A. baumannii XDR CI 2675, 8 µM; in the experiment on B. subtilis B-886 it was 4 µM. The “Minimum Inhibitory Concentration” value in experiment [1] is reported as more than 32 µM; with L. lactis MK43, 4 µM. Besides, the “Minimum inhibitory concentration in the presence of NaCl” value with L. lactis MK66 was more than 32 µM; in the experiment with B. licheniformis B-511 it was more than 32 µM; in the experiment on E. coli SQ110 it was 16 µM; in the experiment with E. coli ML-35p, 32 µM; with B. subtilis B-886, more than 32 µM; with L. lactis MK43, more than 32 µM. The “Increase of MIC values on average compared to AcdA(dT) and acidocin A” value with tested bacterial strains was 2–4 fold.

For “KTYYGNGVHCTKKSLWGKVRLKNVIPGTLCRKQSLPIKQDLKILLGWATGAFGKTFH (disulfide 10-30) [AcdA(dT)]”, the “Minimum Inhibitory Concentration” value in the experiment with L. monocytogenes EGD is more than 128 µM; in the experiment on S. aureus 209P, 8 µM; in the experiment on E. coli ATCC 25922, 4 µM; with M. luteus Ac-2229, 8 µM; with E. coli XDR CI 1057 it was 8 µM; in the experiment with L. lactis MK66, 0.5 µM. Moreover, the “Minimum Inhibitory Concentration” value in the experiment on B. licheniformis B-511 was found to be 2 µM; with E. coli SQ110, 1 µM; in the experiment with E. coli ML-35p it was 2 µM; with M. phlei Ac-1221, 2 µM; in the experiment on A. baumannii XDR CI 2675, 4 µM; in the experiment on B. subtilis B-886, 2 µM. The “Minimum Inhibitory Concentration” value is 16 µM in experiment [1] and 1 µM in the experiment on L. lactis MK43. The “Minimum inhibitory concentration in the presence of NaCl” value with L. lactis MK66 is 32 µM; in the experiment with B. licheniformis B-511, more than 32 µM; in the experiment on E. coli SQ110 it was 8 µM; in the experiment on E. coli ML-35p it was 16 µM; with B. subtilis B-886, more than 32 µM; with L. lactis MK43 it was more than 32 µM.

Take “KTYYGNGVHCTKKSLWGKVRLKNVIPGTLCRKQSLPIKQDLKILLGWATGAFGKTFH (cysteines drawn unpaired) [AcdA(dT) (DTT reduced)]”: the “Minimum Inhibitory Concentration” value was more than 32 µM in the experiment on L. monocytogenes EGD; 16 µM in the experiment with S. aureus 209P; 8 µM in the experiment with E. coli ATCC 25922; 16 µM in the experiment on M. luteus Ac-2229; 16 µM with E. coli XDR CI 1057; 1 µM with L. lactis MK66. The “Minimum Inhibitory Concentration” value with B. licheniformis B-511 turned out to be 4 µM; in the experiment on E. coli SQ110, 4 µM; with E. coli ML-35p it was 4 µM; in the experiment with M. phlei Ac-1221, 4 µM; in the experiment on A. baumannii XDR CI 2675 it was 8 µM; in the experiment with B. subtilis B-886, 4 µM. In addition, the “Minimum Inhibitory Concentration” value in [1] is reported as more than 32 µM; in the experiment on L. lactis MK43 it was 2 µM.

Consider “KTYYGNGVHCTKKSLWGKVRLKNVIPGTLSRKQSLPIKQDLKILLGWATGAFGKTFH [AcdA(dT,C31S)]”, for which the “Minimum Inhibitory Concentration” value in the experiment with L. monocytogenes EGD is more than 32 µM; in the experiment on S. aureus 209P it was 32 µM; with E. coli ATCC 25922, 8 µM; with M. luteus Ac-2229, 16 µM; with E. coli XDR CI 1057, 16 µM; in the experiment on L. lactis MK66, 1 µM. Besides, the “Minimum Inhibitory Concentration” value in the experiment with B. licheniformis B-511 is on record as 4 µM; with E. coli SQ110 it was 8 µM; in the experiment on E. coli ML-35p it was 8 µM; in the experiment with M. phlei Ac-1221 it was 4 µM; in the experiment with A. baumannii XDR CI 2675, 16 µM; in the experiment with B. subtilis B-886 it was 4 µM. Also, the “Minimum Inhibitory Concentration” value in experiment [1] is given as more than 32 µM; in the experiment with L. lactis MK43, 2 µM. Further, the “Minimum inhibitory concentration in the presence of NaCl” value is recorded as more than 32 µM in the experiment on L. lactis MK66; more than 32 µM in the experiment on B. licheniformis B-511; 16 µM with E. coli SQ110; 32 µM in the experiment on E. coli ML-35p; more than 32 µM in the experiment with B. subtilis B-886; more than 32 µM in the experiment on L. lactis MK43. Besides, the “Increase of MIC values on average compared to AcdA(dT) and acidocin A” value in the experiment on tested bacterial strains is on record as 2–4 fold.

As for “KTYYGNGVHSTKKSLWGKVRLKNVIPGTLSRKQSLPIKQDLKILLGWATGAFGKTFH [AcdA(dT,C11S,C31S)]”, the “Minimum Inhibitory Concentration” value in the experiment with L. monocytogenes EGD was more than 32 µM; in the experiment with S. aureus 209P, more than 32 µM; with E. coli ATCC 25922, more than 64 µM; in the experiment on M. luteus Ac-2229, 32 µM; with E. coli XDR CI 1057, more than 64 µM; with L. lactis MK66 it was 1 µM. In addition, the “Minimum Inhibitory Concentration” value in the experiment on B. licheniformis B-511 is 4 µM; with E. coli SQ110, 16 µM; with E. coli ML-35p, more than 64 µM; with M. phlei Ac-1221, 8 µM; with A. baumannii XDR CI 2675 it was more than 32 µM; in the experiment with B. subtilis B-886, 4 µM. For the same sequence, the “Minimum Inhibitory Concentration” value was more than 32 µM in experiment [1] and 4 µM in the experiment on L. lactis MK43. Besides, the “Minimum inhibitory concentration in the presence of NaCl” value in the experiment with L. lactis MK66, in the experiment with B. licheniformis B-511, in the experiment with E. coli SQ110, in the experiment with B. subtilis B-886 and in the experiment on L. lactis MK43 was more than 32 µM each time.

The values are drawn from paper PMC9780942, “Antimicrobial Activity and Immunomodulatory Properties of Acidocin A, the Pediocin-like Bacteriocin with the Non-Canonical Structure” (Membranes, 2022).
